Experimental data as given in paper PMC8453635, “Piperidine Azasugars Bearing Lipophilic Chains: Stereoselective Synthesis and Biological Activity as Inhibitors of Glucocerebrosidase (GCase)” (The Journal of Organic Chemistry, 2021).

Key:
Format in all cases: biochemical
[1] = biological target: T1, β-galactosidase EC 3.2.1.23 (Aspergillus oryzae, UniProt Q2UCU3); assay: Commercial glycosidase screening; details: read-out: % Inhibition at 0.1 mM
T1 construct: purchased
Experimental: (§1) Preliminary biological evaluation of compounds 14 and 15 (at 100 μM inhibitor concentration) was performed toward a panel of 12 commercial glycosidases (α-L-fucosidase EC 3.2.1.51 from Homo sapiens, α-galactosidase EC 3.2.1.22 from coffee beans, β-galactosidases EC 3.2.1.23 from Escherichia coli and Aspergillus oryzae, α-glucosidases EC 3.2.1.20 from yeast and rice, amyloglucosidase EC 3.2.1.3 from Aspergillus niger, β-glucosidase EC 3.2.1.21 from almonds, α-mannosidase EC 3.2.1.24 from Jack beans, β-mannosidase EC 3.2.1.25 from snail, and β-N-acetylglucosaminidases EC 3.2.1.52 from Jack beans and bovine kidney).
(§2) The percentage (%) of inhibition for compounds 14 and 15 toward the corresponding glycosidase was determined by quadruplicate in the presence of 100 μM of the inhibitor on the well. Each enzymatic assay (final volume 0.12 mL) contains 0.01–0.5 units/mL of the enzyme (with previous calibration) and 4.2 mM aqueous solution of the appropriate p-nitrophenyl glycopyranoside (substrate) buffered to the optimal pH of the enzyme. Enzyme and inhibitor were pre-incubated for 5 min at rt, and the reaction started by addition of the substrate. After 20 min of incubation at 37 °C, the reaction was stopped by addition of 0.1 mL of sodium borate solution (pH 9.8). The p-nitrophenolate formed was measured by visible absorption spectroscopy at 405 nm (Asys Expert 96 spectrophotometer). Under these conditions, the p-nitrophenolate released led to optical densities linear with both reaction time and concentration of the enzyme.
(§3) Biological screening towards commercial glycosidases
(§4) α-L-fucosidase EC 3.2.1.51
(§5) α-galactosidase EC 3.2.1.22
(§6) β-galactosidase EC 3.2.1.23
(§7) α-glucosidase EC 3.2.1.20
(§8) amyloglucosidase EC 3.2.1.3
(§9) β-glucosidase EC 3.2.1.21
(§10) α-mannosidase EC 3.2.1.24
(§11) β-mannosidase EC 3.2.1.25
(§12) β-N-acetylglucosaminidase EC 3.2.1.52
(§13) “-“: no inhibition (or less than 15%) detected.

[2] = biological target: T2, β-galactosidase EC 3.2.1.23 (Escherichia coli, UniProt P00722); assay: Commercial glycosidase screening; details: read-out: % Inhibition at 0.1 mM
T2 construct: purchased
Experimental: as §1, §2, §3, §4, §5, §6, §7, §8, §9, §10, §11, §12, §13

[3] = system: α-glucosidase EC 3.2.1.20; assay: Commercial glycosidase screening
Experimental: as §1, §2, §3, §4, §5, §6, §7, §8, §9, §10, §11, §12, §13

[4] = system: β-N-acetylglucosaminidase EC 3.2.1.52; assay: Commercial glycosidase screening
Experimental: as §1, §2, §3, §4, §5, §6, §7, §8, §9, §10, §11, §12, §13

[5] = biological target: T3, α-galactosidase EC 3.2.1.22 (Coffea arabica, UniProt Q42656); assay: Commercial glycosidase screening; details: coffee beans, read-out: % Inhibition at 0.1 mM
T3 construct: purchased
Experimental: as §1, §2, §3, §4
(§14) α-galactosidase EC 3.2.1.22 […]
as §9, §10
(§15) β-mannosidase EC 3.2.1.25 […]
as §13

[6] = biological target: T4, α-mannosidase EC 3.2.1.24 (Canavalia ensiformis, UniProt C0HJB3); assay: Commercial glycosidase screening; details: Jack beans, read-out: % Inhibition at 0.1 mM
T4 construct: purchased
Experimental: as §1, §2, §3, §4, §14, §9, §10, §15, §13

[7] = system: β-mannosidase EC 3.2.1.25; assay: Commercial glycosidase screening; details: snail
Experimental: as §1, §2, §3, §4, §14, §9, §10, §15, §13

[8] = system: α-L-fucosidase EC 3.2.1.51; assay: Commercial glycosidase screening; details: Homo sapiens
Experimental: as §1, §2, §3, §4, §14, §9, §10, §15, §13

[9] = biological target: T5, amyloglucosidase EC 3.2.1.3 (Aspergillus niger, UniProt P69328); assay: Commercial glycosidase screening; details: read-out: % Inhibition at 0.1 mM
T5 construct: purchased
Experimental: as §1, §2, §3, §4, §14, §9, §10, §15, §13

[10] = system: β-glucosidase EC 3.2.1.21; assay: Commercial glycosidase screening; details: almonds
Experimental: as §1, §2, §3, §4, §14, §9, §10, §15, §13

α-mannosidase = biological target: T6, α-mannosidase (Homo sapiens, UniProt O00754); assay: Human lysosomal glycosidase selectivity screening (leukocyte homogenate); details: 1 mM, read-out: percentage of inhibition, α-Man
T6 construct: from leukocytes isolated from healthy donors (controls); from tissue; host or cells: leukocytes from healthy donors, sonicated homogenate
Experimental: In order to avoid undesired inhibitory side effects of a potential new drug, it has to be selective for a given target. The selectivity of the newly synthesized compounds 14, 15, and 33·HCl toward GCase was then investigated, evaluating their inhibition at 1 mM concentration toward six other lysosomal glycosidases (namely, α-and β-mannosidases, α- and β-galactosidases, α-fucosidase, and α-glucosidase) in cell homogenates (leucocytes or lymphocytes) isolated from healthy donors. […] Indeed, only moderate inhibitory activity (ca. 50%) was found toward human β-galactosidase for both piperidines 14 and 15, while negligible inhibitory activity was detected in all other cases.
(§16) The effect of 1 mM concentration of 14, 15, and 33·HCl was assayed toward six lysosomal glycosidases other than GCase, namely, α-mannosidase, β-mannosidase, α-galactosidase, β-galactosidase, α-fucosidase from leukocytes isolated from healthy donors (controls) and α-glucosidase from lymphocytes isolated from healthy donors’ flesh blood (controls). Isolated leukocytes or lymphocytes were disrupted by sonication, and a micro BCA protein assay kit (Sigma-Aldrich) was used to determine the total protein amount for the enzymatic assay, according to the manufacturer’s instructions (for more details, see the Supporting Information section).
Selectivity of compounds 14, 15 and 33.HCl towards lysosomal enzymes.
as §16, with “15” for “15,”, “33.HCl” for “33·HCl”, “towards” for “toward”, “namely:” for “namely,”, “(Sigma–Aldrich)” for “(Sigma-Aldrich)”, “manufacturer instructions. […]” for “manufacturer’s instructions (for more details, see the Supporting Information section).”
Molecular Devices). Inhibition is given with respect to the control (without azasugar). Data are mean SD (n=3). […]
Inhibition is given with respect to the control (without azasugar). Data are mean SD (n=3). […]
(1 picture or pasted object on this page, not shown here) […]
α-Fucosidase activity was measured in a flat -bottomed 96 -well plate. Azasugar solution (3 μL), 4.29 μg/μL leukocytes homogenate 1:3 (7 μL), and substrate 4 -methylumbe lliferyl α-L-fucopyranoside (1.51 mM, 20 μL, Sigma –Aldrich) in Na phosphate/citrate buffer (0.2:0.1, M/M, pH 5.5) were incubated at 37 °C for 1 h. […]
Data are mean SD (n=3). S74 […]
α-Glucosidase activity was measured in a flat –bottomed 96 well plate. Azasugar solution (3 µL), 4.29 µg/µL lymphocytes homogenate (7µL) and 20 µL of substrate solution of 4 -methylumbelliferyl -α-D-glucopyranoside (Sigma -Aldrich) in Na a cetate buffer (0.2 M, pH 4.0) were incubated for 1 h at 37 °C. The reaction was stopped by the addition of a solution of sodium carbonate (200 µL; 0.5M, pH 10.7) containing Triton X -100 (0.0025 %), and the fluorescence of 4 -methylumbelliferone released by α-glucosidase activity was measured in […]
respect to the control (without azasugar). Data are means of 3 values. […]
Figure S 48. Activity of a panel of 6 hu man lysosomal glycosidases in the presence of compounds 14, 15 and 33.HCl (1 mM ). The corresponding calculated percentage of inhibition is indicated above each bar.

T3 sequence (Q42656 16-378): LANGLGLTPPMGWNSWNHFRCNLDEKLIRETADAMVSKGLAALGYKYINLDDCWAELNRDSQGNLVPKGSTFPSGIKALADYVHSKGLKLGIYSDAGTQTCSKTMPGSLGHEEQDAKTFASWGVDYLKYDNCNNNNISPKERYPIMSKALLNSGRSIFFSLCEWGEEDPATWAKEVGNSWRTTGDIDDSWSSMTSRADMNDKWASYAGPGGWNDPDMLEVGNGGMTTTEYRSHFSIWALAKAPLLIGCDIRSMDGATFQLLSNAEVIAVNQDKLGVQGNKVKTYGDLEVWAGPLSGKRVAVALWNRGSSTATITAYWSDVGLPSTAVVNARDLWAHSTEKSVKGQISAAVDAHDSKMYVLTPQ
T2 sequence (P00722 2-1024): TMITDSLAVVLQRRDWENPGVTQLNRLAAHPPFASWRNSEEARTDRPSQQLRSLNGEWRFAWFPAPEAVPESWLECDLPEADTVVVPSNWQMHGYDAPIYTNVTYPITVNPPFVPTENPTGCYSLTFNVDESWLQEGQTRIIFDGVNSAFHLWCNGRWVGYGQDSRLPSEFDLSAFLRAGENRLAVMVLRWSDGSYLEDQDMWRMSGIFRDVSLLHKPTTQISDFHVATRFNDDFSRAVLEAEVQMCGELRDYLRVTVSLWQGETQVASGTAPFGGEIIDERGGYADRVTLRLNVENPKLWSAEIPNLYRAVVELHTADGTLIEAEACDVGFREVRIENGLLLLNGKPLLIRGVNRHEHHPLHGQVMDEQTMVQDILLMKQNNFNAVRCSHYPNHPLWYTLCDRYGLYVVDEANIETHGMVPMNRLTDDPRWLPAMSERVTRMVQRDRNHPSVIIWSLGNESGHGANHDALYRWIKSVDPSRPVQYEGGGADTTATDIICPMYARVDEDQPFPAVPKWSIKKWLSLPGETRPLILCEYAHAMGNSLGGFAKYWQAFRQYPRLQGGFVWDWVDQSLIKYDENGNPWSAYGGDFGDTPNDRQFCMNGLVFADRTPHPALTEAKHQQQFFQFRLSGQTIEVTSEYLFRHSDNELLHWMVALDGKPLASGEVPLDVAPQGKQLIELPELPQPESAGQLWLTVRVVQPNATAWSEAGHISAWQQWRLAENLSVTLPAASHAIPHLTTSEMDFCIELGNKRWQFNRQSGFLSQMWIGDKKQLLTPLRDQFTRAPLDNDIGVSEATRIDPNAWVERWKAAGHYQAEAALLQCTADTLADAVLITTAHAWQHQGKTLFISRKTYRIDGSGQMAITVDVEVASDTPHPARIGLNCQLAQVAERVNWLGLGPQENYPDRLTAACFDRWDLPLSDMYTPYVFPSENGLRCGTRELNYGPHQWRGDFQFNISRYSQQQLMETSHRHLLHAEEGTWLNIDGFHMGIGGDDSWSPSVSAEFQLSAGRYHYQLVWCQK
T4 sequence (C0HJB3 whole entry): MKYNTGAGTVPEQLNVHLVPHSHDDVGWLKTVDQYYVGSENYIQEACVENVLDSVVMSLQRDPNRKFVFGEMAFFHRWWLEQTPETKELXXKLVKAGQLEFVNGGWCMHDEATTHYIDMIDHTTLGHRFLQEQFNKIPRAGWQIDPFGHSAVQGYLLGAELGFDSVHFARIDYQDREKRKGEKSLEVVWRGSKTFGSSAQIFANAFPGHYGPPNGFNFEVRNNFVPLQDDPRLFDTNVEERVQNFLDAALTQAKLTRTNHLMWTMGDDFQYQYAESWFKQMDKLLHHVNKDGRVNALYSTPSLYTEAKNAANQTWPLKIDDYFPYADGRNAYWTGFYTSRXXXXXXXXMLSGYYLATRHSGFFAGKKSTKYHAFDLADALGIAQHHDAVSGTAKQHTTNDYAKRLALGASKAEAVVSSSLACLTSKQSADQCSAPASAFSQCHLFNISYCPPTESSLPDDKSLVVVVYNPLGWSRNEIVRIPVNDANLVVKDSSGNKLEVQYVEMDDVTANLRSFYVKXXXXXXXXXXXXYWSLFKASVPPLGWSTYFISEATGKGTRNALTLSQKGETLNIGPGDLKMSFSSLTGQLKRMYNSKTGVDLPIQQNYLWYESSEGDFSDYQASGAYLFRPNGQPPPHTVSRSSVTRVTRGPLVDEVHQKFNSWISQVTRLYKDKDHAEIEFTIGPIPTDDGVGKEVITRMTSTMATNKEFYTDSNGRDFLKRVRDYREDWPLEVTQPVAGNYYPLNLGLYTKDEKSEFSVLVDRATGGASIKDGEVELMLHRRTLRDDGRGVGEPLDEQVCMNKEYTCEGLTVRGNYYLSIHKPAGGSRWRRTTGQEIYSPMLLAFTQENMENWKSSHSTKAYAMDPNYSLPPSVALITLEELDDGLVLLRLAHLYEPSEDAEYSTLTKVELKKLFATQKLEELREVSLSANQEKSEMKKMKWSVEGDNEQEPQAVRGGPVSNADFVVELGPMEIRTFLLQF
T6 sequence (O00754 50-1011): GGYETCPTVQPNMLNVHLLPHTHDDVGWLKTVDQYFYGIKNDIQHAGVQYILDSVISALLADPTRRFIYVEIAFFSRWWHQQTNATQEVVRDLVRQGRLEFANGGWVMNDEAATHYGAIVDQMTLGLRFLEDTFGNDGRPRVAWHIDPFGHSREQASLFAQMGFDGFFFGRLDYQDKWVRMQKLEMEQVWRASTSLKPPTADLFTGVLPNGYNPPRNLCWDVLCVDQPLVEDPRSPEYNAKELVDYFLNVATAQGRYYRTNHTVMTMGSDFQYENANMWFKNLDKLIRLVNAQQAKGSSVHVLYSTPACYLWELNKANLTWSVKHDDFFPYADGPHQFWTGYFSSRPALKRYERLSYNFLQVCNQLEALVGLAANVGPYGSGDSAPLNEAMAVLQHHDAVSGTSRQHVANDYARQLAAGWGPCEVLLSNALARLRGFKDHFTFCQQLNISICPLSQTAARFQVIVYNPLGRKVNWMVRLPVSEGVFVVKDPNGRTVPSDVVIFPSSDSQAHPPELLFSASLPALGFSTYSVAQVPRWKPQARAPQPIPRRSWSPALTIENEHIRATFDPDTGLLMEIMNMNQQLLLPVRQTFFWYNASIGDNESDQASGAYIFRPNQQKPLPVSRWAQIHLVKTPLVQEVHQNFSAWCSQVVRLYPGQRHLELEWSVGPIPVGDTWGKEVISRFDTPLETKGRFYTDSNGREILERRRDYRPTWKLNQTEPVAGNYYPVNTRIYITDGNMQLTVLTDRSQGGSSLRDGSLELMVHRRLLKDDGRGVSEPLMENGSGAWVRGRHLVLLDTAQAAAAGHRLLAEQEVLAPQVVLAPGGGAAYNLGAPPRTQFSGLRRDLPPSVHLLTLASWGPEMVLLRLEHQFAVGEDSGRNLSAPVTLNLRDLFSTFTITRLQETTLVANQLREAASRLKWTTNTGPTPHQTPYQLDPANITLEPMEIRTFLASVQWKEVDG
T1 sequence (Q2UCU3 19-1005): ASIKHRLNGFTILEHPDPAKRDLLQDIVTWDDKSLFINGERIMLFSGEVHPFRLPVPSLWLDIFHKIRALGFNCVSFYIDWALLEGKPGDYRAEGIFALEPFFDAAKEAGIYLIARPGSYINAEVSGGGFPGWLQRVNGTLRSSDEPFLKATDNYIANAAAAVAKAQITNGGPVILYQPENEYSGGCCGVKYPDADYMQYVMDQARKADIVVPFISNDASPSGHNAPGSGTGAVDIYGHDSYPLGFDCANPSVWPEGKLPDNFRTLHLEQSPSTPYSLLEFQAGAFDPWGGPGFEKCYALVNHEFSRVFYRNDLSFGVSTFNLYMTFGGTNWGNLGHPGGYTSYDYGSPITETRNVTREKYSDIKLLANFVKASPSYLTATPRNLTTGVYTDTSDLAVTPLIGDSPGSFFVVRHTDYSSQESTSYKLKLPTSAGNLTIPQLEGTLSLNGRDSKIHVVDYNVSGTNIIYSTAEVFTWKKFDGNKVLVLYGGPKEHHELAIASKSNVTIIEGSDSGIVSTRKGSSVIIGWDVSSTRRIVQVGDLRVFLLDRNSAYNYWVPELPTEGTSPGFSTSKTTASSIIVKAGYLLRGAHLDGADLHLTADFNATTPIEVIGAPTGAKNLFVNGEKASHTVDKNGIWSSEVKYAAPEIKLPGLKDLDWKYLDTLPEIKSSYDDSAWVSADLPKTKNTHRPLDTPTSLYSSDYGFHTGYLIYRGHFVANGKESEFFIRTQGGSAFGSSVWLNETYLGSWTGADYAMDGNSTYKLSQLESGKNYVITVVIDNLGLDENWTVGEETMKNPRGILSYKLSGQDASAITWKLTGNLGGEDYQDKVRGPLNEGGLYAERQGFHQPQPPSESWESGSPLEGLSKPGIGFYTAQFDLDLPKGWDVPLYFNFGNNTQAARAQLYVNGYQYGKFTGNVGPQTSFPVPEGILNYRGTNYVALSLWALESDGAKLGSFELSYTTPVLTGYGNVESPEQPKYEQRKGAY
T5 sequence (P69328 25-640): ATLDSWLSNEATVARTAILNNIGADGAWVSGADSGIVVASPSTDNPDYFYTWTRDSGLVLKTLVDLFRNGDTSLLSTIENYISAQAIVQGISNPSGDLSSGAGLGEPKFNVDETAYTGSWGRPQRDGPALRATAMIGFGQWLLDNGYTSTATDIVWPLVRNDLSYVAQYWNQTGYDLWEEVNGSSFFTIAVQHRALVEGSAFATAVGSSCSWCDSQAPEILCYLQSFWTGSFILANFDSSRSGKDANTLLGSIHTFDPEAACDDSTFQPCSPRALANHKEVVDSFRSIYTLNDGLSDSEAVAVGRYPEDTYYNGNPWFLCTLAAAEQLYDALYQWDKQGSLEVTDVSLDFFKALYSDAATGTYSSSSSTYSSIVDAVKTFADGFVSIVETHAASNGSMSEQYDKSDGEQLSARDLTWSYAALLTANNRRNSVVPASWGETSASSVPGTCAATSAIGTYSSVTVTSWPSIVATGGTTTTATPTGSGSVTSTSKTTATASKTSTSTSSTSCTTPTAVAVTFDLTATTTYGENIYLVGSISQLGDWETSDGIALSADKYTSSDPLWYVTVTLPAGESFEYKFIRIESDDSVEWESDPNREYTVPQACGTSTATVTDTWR

| SMILES | inhibition at 100 µM [1] [%] | inhibition at 100 µM [2] [%] | % Inhibition at 0.1 mM ([3]; rice) | % Inhibition at 0.1 mM ([3]; yeast) | % Inhibition at 0.1 mM ([4]; Jack beans) | % Inhibition at 0.1 mM ([4]; bovine kidney) | inhibition at 100 µM [5] [%] | inhibition at 100 µM [6] [%] | % Inhibition at 0.1 mM [7] | % Inhibition at 0.1 mM [8] | inhibition at 100 µM [9] [%] | % Inhibition at 0.1 mM [10] | inhibition at 1000 µM (α-mannosidase) [%] |
| --- | --- | --- | --- | --- | --- | --- | --- | --- | --- | --- | --- | --- | --- |
| CCCCCCCC[C@H]1[C@@H](O)[C@H](O)[C@H](O)CN1CCCCCCCC [compound 14, (2S,3R,4R,5R)-1,2-Dioctylpiperidine-3,4,5-triol] | < 15 | < 15 | - (“-“: no inhibition (or less than 15%) detected.) | - (“-“: no inhibition (or less than 15%) detected.) | - (“-“: no inhibition (or less than 15%) detected.) | - (“-“: no inhibition (or less than 15%) detected.) | < 15 | < 15 | - (“-“: no inhibition (or less than 15%) detected.) | - (“-“: no inhibition (or less than 15%) detected.) | < 15 | 30% | 4 |
| CCCCCCCC[C@@H]1[C@@H](O)[C@H](O)[C@H](O)CN1CCCCCCCC [compound 15, (2R,3R,4R,5R)-1,2-Dioctylpiperidine-3,4,5-triol] | < 15 | < 15 | - (“-“: no inhibition (or less than 15%) detected.) | - (“-“: no inhibition (or less than 15%) detected.) | - (“-“: no inhibition (or less than 15%) detected.) | - (“-“: no inhibition (or less than 15%) detected.) | < 15 | < 15 | - (“-“: no inhibition (or less than 15%) detected.) | - (“-“: no inhibition (or less than 15%) detected.) | < 15 | - (“-“: no inhibition (or less than 15%) detected.) | 7 |
